Data: the supplement of paper PMC10307832

Assays:
Test in all cases: relative viability (nuclei count vs DMSO), 5 days (fraction); higher = more cells survive
ABC-1 = test system: ABC-1
Procedure, shortened: (§1)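 Lung cancer cell lines were seeded in 1536-well plates and dosed by pin tool the next day, with either a single drug or a fixed anchor-drug dose combined with five library-drug doses (not always all listed) spaced in √10 steps. Five days later, one step fixed the cells and stained their nuclei (final 0.05% Triton X-100, 1% formaldehyde, 1 ug/ml Hoechst), and nuclei were counted on 4× images. Relative viability is the nuclei count in treated wells divided by the count in vehicle wells, and each value is the median of duplicate plates.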

BEN = test system: BEN
Procedure, shortened: as §1

CAL-12T = test system: CAL-12T
Procedure, shortened: as §1

EKVX = test system: EKVX
Procedure, shortened: as §1

EMC-BAC-2 = test system: EMC-BAC-2
Procedure, shortened: as §1

H3255 = test system: H3255
Procedure, shortened: as §1

LC-2-ad = test system: LC-2-ad
Procedure, shortened: as §1

LU99A = test system: LU99A
Procedure, shortened: as §1

NCI-H1355 = test system: NCI-H1355
Procedure, shortened: as §1

NCI-H1650 = test system: NCI-H1650
Procedure, shortened: as §1

NCI-H1734 = test system: NCI-H1734
Procedure, shortened: as §1

NCI-H1792 = test system: NCI-H1792
Procedure, shortened: as §1

NCI-H1993 = test system: NCI-H1993
Procedure, shortened: as §1

NCI-H2009 = test system: NCI-H2009
Procedure, shortened: as §1

NCI-H2085 = test system: NCI-H2085
Procedure, shortened: as §1

NCI-H2087 = test system: NCI-H2087
Procedure, shortened: as §1

NCI-H2342 = test system: NCI-H2342
Procedure, shortened: as §1

NCI-H520 = test system: NCI-H520
Procedure, shortened: as §1

NCI-H522 = test system: NCI-H522
Procedure, shortened: as §1

NCI-H661 = test system: NCI-H661
Procedure, shortened: as §1

NCI-H838 = test system: NCI-H838
Procedure, shortened: as §1

SK-LU-1 = test system: SK-LU-1
Procedure, shortened: as §1

SK-MES-1 = test system: SK-MES-1
Procedure, shortened: as §1

SW 1573 = test system: SW 1573
Procedure, shortened: as §1

UMC-11 = test system: UMC-11
Procedure, shortened: as §1

Nc1cccc2c1CN(C1CCC(=O)NC1=O)C2=O (stereo not given) [Lenalidomide] + N=C(N)NC(=N)NCCc1ccccc1 [Phenformin] (partner 250 µM)
relative viability (ABC-1; first compound 0.253 µM): 0.209
relative viability (ABC-1; first compound 0.8 µM): 0.216
relative viability (ABC-1; first compound 2.53 µM): 0.27
relative viability (ABC-1; first compound 8 µM): 0.258
relative viability (BEN; first compound 0.253 µM): 0.287
relative viability (BEN; first compound 0.8 µM): 0.268
relative viability (BEN; first compound 2.53 µM): 0.285
relative viability (BEN; first compound 8 µM): 0.222
relative viability (CAL-12T; first compound 0.253 µM): 0.548
relative viability (CAL-12T; first compound 0.8 µM): 0.633
relative viability (CAL-12T; first compound 2.53 µM): 0.639
relative viability (CAL-12T; first compound 8 µM): 0.647
relative viability (EKVX; first compound 0.253 µM): 0.23
relative viability (EKVX; first compound 0.8 µM): 0.211
relative viability (EKVX; first compound 2.53 µM): 0.241
relative viability (EKVX; first compound 8 µM): 0.196
relative viability (EMC-BAC-2; first compound 0.253 µM): 0.527
relative viability (EMC-BAC-2; first compound 0.8 µM): 0.525
relative viability (EMC-BAC-2; first compound 2.53 µM): 0.598
relative viability (EMC-BAC-2; first compound 8 µM): 0.459
relative viability (H3255; first compound 0.253 µM): 0.331
relative viability (H3255; first compound 0.8 µM): 0.38
relative viability (H3255; first compound 2.53 µM): 0.329
relative viability (H3255; first compound 8 µM): 0.386
relative viability (LC-2-ad; first compound 0.253 µM): 0.567
relative viability (LC-2-ad; first compound 2.53 µM): 0.64
relative viability (LC-2-ad; first compound 8 µM): 0.585
relative viability (LU99A; first compound 0.253 µM): 0.76
relative viability (LU99A; first compound 0.8 µM): 0.875
relative viability (LU99A; first compound 2.53 µM): 0.96
relative viability (LU99A; first compound 8 µM): 0.564
relative viability (NCI-H1355; first compound 0.253 µM): 0.485
relative viability (NCI-H1355; first compound 2.53 µM): 0.462
relative viability (NCI-H1355; first compound 8 µM): 0.399
relative viability (NCI-H1650; first compound 0.8 µM): 0.376
relative viability (NCI-H1650; first compound 2.53 µM): 0.554
relative viability (NCI-H1650; first compound 8 µM): 0.483
relative viability (NCI-H1734; first compound 0.253 µM): 0.39
relative viability (NCI-H1734; first compound 0.8 µM): 0.413
relative viability (NCI-H1734; first compound 2.53 µM): 0.425
relative viability (NCI-H1734; first compound 8 µM): 0.34
relative viability (NCI-H1792; first compound 0.253 µM): 0.369
relative viability (NCI-H1792; first compound 2.53 µM): 0.574
relative viability (NCI-H1792; first compound 8 µM): 0.189
relative viability (NCI-H1993; first compound 0.253 µM): 0.429
relative viability (NCI-H1993; first compound 0.8 µM): 0.553
relative viability (NCI-H1993; first compound 2.53 µM): 0.551
relative viability (NCI-H1993; first compound 8 µM): 0.516
relative viability (NCI-H2009; first compound 0.253 µM): 0.454
relative viability (NCI-H2009; first compound 0.8 µM): 0.517
relative viability (NCI-H2009; first compound 2.53 µM): 0.518
relative viability (NCI-H2009; first compound 8 µM): 0.528
relative viability (NCI-H2085; first compound 0.253 µM): 0.604
relative viability (NCI-H2085; first compound 0.8 µM): 0.653
relative viability (NCI-H2085; first compound 2.53 µM): 0.827
relative viability (NCI-H2085; first compound 8 µM): 0.562
relative viability (NCI-H2087; first compound 0.253 µM): 0.416
relative viability (NCI-H2087; first compound 0.8 µM): 0.372
relative viability (NCI-H2087; first compound 2.53 µM): 0.505
relative viability (NCI-H2087; first compound 8 µM): 0.477
relative viability (NCI-H2342; first compound 0.253 µM): 0.637
relative viability (NCI-H2342; first compound 0.8 µM): 0.551
relative viability (NCI-H2342; first compound 2.53 µM): 0.628
relative viability (NCI-H2342; first compound 8 µM): 0.505
relative viability (NCI-H520; first compound 0.253 µM): 0.579
relative viability (NCI-H520; first compound 0.8 µM): 0.481
relative viability (NCI-H520; first compound 2.53 µM): 0.658
relative viability (NCI-H520; first compound 8 µM): 0.257
relative viability (NCI-H522; first compound 0.253 µM): 0.645
relative viability (NCI-H522; first compound 2.53 µM): 0.643
relative viability (NCI-H522; first compound 8 µM): 0.573
relative viability (NCI-H661; first compound 0.253 µM): 0.276
relative viability (NCI-H661; first compound 0.8 µM): 0.314
relative viability (NCI-H661; first compound 2.53 µM): 0.296
relative viability (NCI-H661; first compound 8 µM): 0.249
relative viability (NCI-H838; first compound 0.253 µM): 0.545
relative viability (NCI-H838; first compound 0.8 µM): 0.541
relative viability (NCI-H838; first compound 2.53 µM): 0.689
relative viability (NCI-H838; first compound 8 µM): 0.468
relative viability (SK-LU-1; first compound 0.253 µM): 0.539
relative viability (SK-LU-1; first compound 0.8 µM): 0.595
relative viability (SK-LU-1; first compound 2.53 µM): 0.693
relative viability (SK-LU-1; first compound 8 µM): 0.472
relative viability (SK-MES-1; first compound 0.253 µM): 0.556
relative viability (SK-MES-1; first compound 0.8 µM): 0.678
relative viability (SK-MES-1; first compound 2.53 µM): 0.678
relative viability (SK-MES-1; first compound 8 µM): 0.773
relative viability (SW 1573; first compound 0.253 µM): 0.432
relative viability (SW 1573; first compound 0.8 µM): 0.43
relative viability (SW 1573; first compound 2.53 µM): 0.347
relative viability (SW 1573; first compound 8 µM): 0.345
relative viability (UMC-11; first compound 0.253 µM): 0.317
relative viability (UMC-11; first compound 0.8 µM): 0.328
relative viability (UMC-11; first compound 2.53 µM): 0.389
relative viability (UMC-11; first compound 8 µM): 0.339
